Data from patent US6455495B1, “Methods and compositions for delivery of therapeutic agents to bone tissue employing conjugates of negatively charged peptide oligomers with therapeutic agents” (The Salk Institute for Biological Studies, priority 1997, dated 2002).

What was measured:
[1] = R. Fujisawa et al. 1996, cited from earlier work
[2] = system: dihydrofolate reductase; settings: 1 nmole peptide adsorbed on 1 mg hydroxyapatite; 0.52 nmole DHFR, pH 6.4, shaken 45 minutes; SDS gel, Coumassie Blue
Method: The supernatant was removed by centrifugation and the hydroxyapatite was washed with 100 μl of water. Dihydrofolate reductase (0.52 nmole) in 200 μl of buffer containing 0.1 M ammonium sulfate, 0.01 M potassium phosphate, at pH 6.4 and 5% glycerol was added to the hydroxyapatite and shaken for 45 minutes. The hydroxyapatite was separated from the supernatant, washed with 100 μl of water and then eluted twice with 20 μl of 0.02 M K4P2O7. […] The supernatant, the washes and the pyrophosphate eluate were analyzed on a 6% arylamide SDS gel using Coumassie Blue to visualize dihydrofolate reductase.

[3] = molecular target: streptavidin (Streptomyces avidinii, UniProt P22629); assay: Recruitment of 125I-labeled streptavidin to hydroxyapatite; assay type: binding; settings: 1 nmole peptide on 1 mg hydroxyapatite; 0.1 nmole 125I-streptavidin, 1 M KCl, 0.01 M phosphate pH 6.5, 45 minutes
Method: The supernatant was removed by centrifugation, and the conjugate treated hydroxyapatite washed several times with 200 μl of H2O. The amounts of radioactivity found in the supernatant, wash and conjugate treated hydroxyapatite were then measured. In control experiments, biotin-glu10 was replaced by glu10. When a peptide bound to the hydroxyapatite was ligated to biotin about 70% of the streptavidin was recruited to the hydroxyapatite and 25-30% remained in the supernatant. In the control experiment, no more than 5% of the streptavidin was bound to the hydroxyapatite.

Sequence of streptavidin (P22629 25-183): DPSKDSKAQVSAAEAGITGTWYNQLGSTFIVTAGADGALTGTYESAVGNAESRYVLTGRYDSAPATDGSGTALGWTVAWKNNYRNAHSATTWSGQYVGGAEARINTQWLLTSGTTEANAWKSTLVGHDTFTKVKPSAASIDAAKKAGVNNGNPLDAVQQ

Row | Substance | adsorption onto hydroxyapatite [1] | effect on mineralization of hydroxyapatite ([1]; in the presence of calcium and phosphate) | dihydrofolate reductase found in the pyrophosphate eluate [2] | streptavidin recruited (bound) to the hydroxyapatite [3]
1 | glutamic acid hexamer [Glu6] | significantly adsorb | affect the mineralization |  | 
2 | Glutamic acid decapeptide [glu10] |  |  | only a small amount | no more than 5%
3 | Aspartic acid hexamer [Asp6] | significantly adsorb |  |  | 
